{"source": "patent US10357431B2", "about": "“Process for the preparation of a pharmaceutical composition comprising a low soluble pharmaceutically active ingredient” (Lek Pharmaceuticals d.d., priority 2010, dated 2019)", "key": {"[1]": {"test": "Particle size distribution of ezetimibe (laser diffraction, e.g. Malvern)", "type": "physicochemical", "description": "In a particularly exemplified embodiment according to the present invention, the particle size distribution d(0.5) that is present after step (b) and prior to step (c), after step (c) and prior to step (d), and/or after step (d), corresponds essentially to or is smaller than the primary particle size distribution d(0.5) of the API that is used for providing the suspension of step (a). This (further) contributes to a further improved pharmaceutical composition or dosage form, respectively, as e.g. the dissolution profile and controllability are further enhanced. In general, the particle size distribution of a powder, or granular material, or particles e.g. dispersed in fluid, is a list of values or a mathematical function that defines the relative amounts of particles present, sorted according to size. The nomenclature describing the particle size distribution is herein referred to as “d(0.5)”. For example, a d(0.5) of 5 μm means that 50% (by volume) of the particles have a size less than or equal to 5 μm, as tested by any conventional method such as laser diffraction method (e.g. laser diffraction Malvern). When measuring the particle size distribution by laser diffraction Malvern, an appropriate amount of sample (usually a few drops of suspension) is put into a gently mixing chamber filled with water. From this chamber, the sample continuously flows through a measuring chamber and the particle size distribution is determined by laser diffraction. Within the meaning of the present invention, the term “particle size distribution d(0.5) corresponds essentially to or is smaller than” denotes that (i) the particle size distribution d(0.5) of the primary particles when measured after deagglomeration, i.e. after the high energy input treatment has been applied to the suspension containing the API particles, essentially corresponds to the particle size distribution d(0.5) of the primary particles that were used for providing the suspension of step (a); or (ii), alternatively, it denotes that the particle size distribution d(0.5) when measured after deagglomeration is smaller than the particle size distribution d(0.5) of the primary particles that were used for providing the suspension of step (a).\nThe particle size distribution d(0.5) of the primary API particles used for providing the suspension of step (a) in (A), (B) and (C) can be assessed by any method that is known to a person skilled in the art, such as by using laser diffraction method (e.g. Malvern Mastersizer, see above). As described elsewhere herein, said primary API particles may be present deagglomerated, however said particles may also be present in an agglomerated state. In the latter case, it is also possible to determine the particle size distribution d(0.5) by laser diffraction. If appropriate, it is preferred that the method for carrying out the first measurement corresponds to the method used for carrying out the second measurement.\nThe method according to the present invention is particularly useful for processing API particles having a particle size distribution d(0.5) that is relatively small, e.g. a particle size distribution d(0.5) where agglomeration is generated (critical particle size/particle size distribution). The critical particle size/particle size distribution for a selected API is known to a person skilled in the art. Further, said size/size distribution can be determined by any suitable method that is known to a person skilled in the art, such as by using SEM or laser diffraction. Usually SEM or more preferably disintegrated tablet suspension is recorded under a visual microscope and is processed with particle recognition software to obtain an estimation of particle size distribution. On SEM pictures, eventually occurring agglomerates are also visible. When using laser diffraction, a suspension of the API is transferred to the dispersing chamber containing water. […]"}, "[2]": {"conditions": "cited from earlier work"}, "[3]": {"conditions": "Example 3, Table 1, particle size after deagglomeration (suspension passed through ball mill)"}, "[4]": {"conditions": "Example 3, Table 1, starting particle size"}, "[5]": {"conditions": "Example 4, Table 2, particle size after deagglomeration (high energy rotor-stator mixer)"}, "[6]": {"conditions": "Example 4, Table 2, starting particle size"}, "[7]": {"conditions": "Example 6, Table 3, particle size after milling (rotor-stator mixer, then ball mill)"}, "[8]": {"conditions": "Example 6, Table 3, starting particle size"}, "[9]": {"conditions": "Example 7, Table 4, particle size after milling (rotor-stator mixer, then ball mill)"}, "[10]": {"conditions": "Example 7, Table 4, starting particle size"}}, "note": "Read-outs that look alike come from different tables or passages of the source."}
{"compound": "O=C1[C@H](CC[C@H](O)c2ccc(F)cc2)[C@@H](c2ccc(O)cc2)N1c1ccc(F)cc1", "note": "[ezetimibe]", "values": [{"measurement": "size below which 50% of micronized ezetimibe particles were", "setting": "[1]; Comparative Example 5, micronized starting ezetimibe", "result": 3.9, "unit": "micrometers"}, {"measurement": "D(0.1)", "setting": "[1]; [3]", "result": 0.84, "unit": "μm"}, {"measurement": "D(0.5)", "setting": "[1]; [3]", "result": 2.98, "unit": "μm"}, {"measurement": "D(0.9)", "setting": "[1]; [3]", "result": 6.28, "unit": "μm"}, {"measurement": "D(0.1)", "setting": "[1]; [4]", "result": 0.30, "unit": "μm"}, {"measurement": "D(0.5)", "setting": "[1]; [4]", "result": 2.97, "unit": "μm"}, {"measurement": "D(0.9)", "setting": "[1]; [4]", "result": 6.87, "unit": "μm"}, {"measurement": "change of particle size distribution d(0.5)", "setting": "[1]; Example 3, suspension passed through a ball mill", "result": "remained essentially unchanged"}, {"measurement": "D(0.1)", "setting": "[1]; [5]", "result": 0.83, "unit": "μm"}, {"measurement": "D(0.5)", "setting": "[1]; [5]", "result": 2.54, "unit": "μm"}, {"measurement": "D(0.9)", "setting": "[1]; [5]", "result": 5.03, "unit": "μm"}, {"measurement": "D(0.1)", "setting": "[1]; [6]", "result": 0.30, "unit": "μm"}, {"measurement": "D(0.5)", "setting": "[1]; [6]", "result": 2.97, "unit": "μm"}, {"measurement": "D(0.9)", "setting": "[1]; [6]", "result": 6.87, "unit": "μm"}, {"measurement": "change of particle size distribution d(0.5)", "setting": "[1]; Example 4, suspension mixed with high energy rotor-stator mixer", "result": "remained unchanged"}, {"measurement": "D(0.1)", "setting": "[1]; [7]", "result": 0.24, "unit": "μm"}, {"measurement": "D(0.5)", "setting": "[1]; [7]", "result": 1.11, "unit": "μm"}, {"measurement": "D(0.9)", "setting": "[1]; [7]", "result": 4.35, "unit": "μm"}, {"measurement": "D(0.1)", "setting": "[1]; [8]", "result": 0.82, "unit": "μm"}, {"measurement": "D(0.5)", "setting": "[1]; [8]", "result": 3.29, "unit": "μm"}, {"measurement": "D(0.9)", "setting": "[1]; [8]", "result": 6.49, "unit": "μm"}, {"measurement": "D(0.1)", "setting": "[1]; [9]", "result": 0.63, "unit": "μm"}, {"measurement": "D(0.5)", "setting": "[1]; [9]", "result": 1.99, "unit": "μm"}, {"measurement": "D(0.9)", "setting": "[1]; [9]", "result": 5.49, "unit": "μm"}, {"measurement": "D(0.1)", "setting": "[1]; [10]", "result": 0.83, "unit": "μm"}, {"measurement": "D(0.5)", "setting": "[1]; [10]", "result": 2.76, "unit": "μm"}, {"measurement": "D(0.9)", "setting": "[1]; [10]", "result": 5.19, "unit": "μm"}, {"measurement": "solubility", "setting": "[2]; in ethanol, methanol, and acetone", "result": "freely to very soluble"}, {"measurement": "solubility", "setting": "[2]; in water", "result": "particularly poorly soluble"}]}
